Laboratory results: ChEMBL document CHEMBL4507262, “Data for DCP probe A-1596586” (2021)

Columns and labels:
[1] = molecular target: T1, Alpha-2A adrenergic receptor (Homo sapiens) (UniProt P08913); conditions: Compound concentration 10.0 uM
T1 sequence (whole entry): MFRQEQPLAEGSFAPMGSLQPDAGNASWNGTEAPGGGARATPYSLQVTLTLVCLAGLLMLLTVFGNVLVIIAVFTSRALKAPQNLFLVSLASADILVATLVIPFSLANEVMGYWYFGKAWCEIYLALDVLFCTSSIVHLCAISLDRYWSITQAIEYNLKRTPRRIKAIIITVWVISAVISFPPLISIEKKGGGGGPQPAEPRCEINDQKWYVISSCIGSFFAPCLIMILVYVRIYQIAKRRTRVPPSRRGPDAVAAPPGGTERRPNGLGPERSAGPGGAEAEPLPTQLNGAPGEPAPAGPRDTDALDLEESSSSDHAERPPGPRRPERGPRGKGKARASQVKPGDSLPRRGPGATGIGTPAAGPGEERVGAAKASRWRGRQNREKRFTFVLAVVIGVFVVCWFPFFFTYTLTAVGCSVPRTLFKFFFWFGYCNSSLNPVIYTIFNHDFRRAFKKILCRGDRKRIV

[2] = molecular target: Receptor tyrosine-protein kinase erbB-2 (Homo sapiens) (UniProt P04626); conditions: Compound concentration 1000.0 nM
[3] = molecular target: Death-associated protein kinase 3 (Homo sapiens) (UniProt O43293); conditions: Compound concentration 1000.0 nM
[4] = test system: Tyrosine-protein kinase ABL1 (Homo sapiens), P00519 [H396P]; conditions: Compound concentration 1000.0 nM
[5] = molecular target: Cyclin-dependent kinase 3 (Homo sapiens) (UniProt Q00526); conditions: Compound concentration 1000.0 nM
[6] = molecular target: Glycogen synthase kinase-3 alpha (Homo sapiens) (UniProt P49840); conditions: Compound concentration 1000.0 nM
[7] = test system: Mast/stem cell growth factor receptor Kit (Homo sapiens), P10721 [A829P]; conditions: Compound concentration 1000.0 nM
[8] = molecular target: Serine/threonine-protein kinase 24 (Homo sapiens) (UniProt Q9Y6E0); conditions: Compound concentration 1000.0 nM
[9] = molecular target: Calcium/calmodulin-dependent protein kinase type 1G (Homo sapiens) (UniProt Q96NX5); conditions: Compound concentration 1000.0 nM
[10] = molecular target: Tyrosine-protein kinase ABL1 (Homo sapiens) (UniProt P00519); conditions: Compound concentration 1000.0 nM
[11] = molecular target: Serine/threonine-protein kinase 17A (Homo sapiens) (UniProt Q9UEE5); conditions: Compound concentration 1000.0 nM
[12] = molecular target: Tyrosine-protein kinase Fes/Fps (Homo sapiens) (UniProt P07332); conditions: Compound concentration 1000.0 nM
[13] = molecular target: Cyclin-dependent kinase 4 (Homo sapiens) (UniProt P11802); conditions: Compound concentration 1000.0 nM
[14] = molecular target: Serine/threonine-protein kinase 16 (Homo sapiens) (UniProt O75716); conditions: Compound concentration 1000.0 nM
[15] = molecular target: Aurora kinase B (Homo sapiens) (UniProt Q96GD4); conditions: Compound concentration 1000.0 nM
[16] = molecular target: Protein kinase C iota type (Homo sapiens) (UniProt P41743); conditions: Compound concentration 1000.0 nM
[17] = molecular target: Proto-oncogene tyrosine-protein kinase receptor Ret (Homo sapiens) (UniProt P07949); conditions: Compound concentration 1000.0 nM
[18] = molecular target: D(1B) dopamine receptor (Homo sapiens) (UniProt P21918); conditions: Compound concentration 10.0 uM
[19] = molecular target: Glycogen synthase kinase-3 beta (Homo sapiens) (UniProt P49841); conditions: Compound concentration 1000.0 nM
[20] = molecular target: Prostaglandin G/H synthase 1 (Homo sapiens) (UniProt P23219); assay: COX1(h) Eurofins-Cerep enzyme and uptake assay; conditions: Compound concentration 10.0 uM
[21] = molecular target: SRSF protein kinase 2 (Homo sapiens) (UniProt P78362); conditions: Compound concentration 1000.0 nM
[22] = molecular target: Serine/threonine-protein kinase 26 (Homo sapiens) (UniProt Q9P289); conditions: Compound concentration 1000.0 nM
[23] = molecular target: Dual specificity mitogen-activated protein kinase kinase 4 (Homo sapiens) (UniProt P45985); conditions: Compound concentration 1000.0 nM
[24] = molecular target: Mitogen-activated protein kinase kinase kinase 1 (Homo sapiens) (UniProt Q13233); conditions: Compound concentration 1000.0 nM
[25] = molecular target: Serine/threonine-protein kinase DCLK3 (Homo sapiens) (UniProt Q9C098); conditions: Compound concentration 1000.0 nM
[26] = molecular target: Sigma intracellular receptor 2 (Homo sapiens, UniProt Q5BJF2); assay: GPCRScan assay: inhibition of Sigma 2; design: radioligand conc. used [nm] 5.0, parental cells HEKT
[27] = molecular target: Megakaryocyte-associated tyrosine-protein kinase (Homo sapiens) (UniProt P42679); conditions: Compound concentration 1000.0 nM
[28] = molecular target: T2, Alpha-1B adrenergic receptor (Homo sapiens) (UniProt P35368); assay: Alpha1B (h) Eurofins-Cerep binding assay; conditions: filed as antagonist, Compound concentration 10.0 uM
T2 sequence (whole entry): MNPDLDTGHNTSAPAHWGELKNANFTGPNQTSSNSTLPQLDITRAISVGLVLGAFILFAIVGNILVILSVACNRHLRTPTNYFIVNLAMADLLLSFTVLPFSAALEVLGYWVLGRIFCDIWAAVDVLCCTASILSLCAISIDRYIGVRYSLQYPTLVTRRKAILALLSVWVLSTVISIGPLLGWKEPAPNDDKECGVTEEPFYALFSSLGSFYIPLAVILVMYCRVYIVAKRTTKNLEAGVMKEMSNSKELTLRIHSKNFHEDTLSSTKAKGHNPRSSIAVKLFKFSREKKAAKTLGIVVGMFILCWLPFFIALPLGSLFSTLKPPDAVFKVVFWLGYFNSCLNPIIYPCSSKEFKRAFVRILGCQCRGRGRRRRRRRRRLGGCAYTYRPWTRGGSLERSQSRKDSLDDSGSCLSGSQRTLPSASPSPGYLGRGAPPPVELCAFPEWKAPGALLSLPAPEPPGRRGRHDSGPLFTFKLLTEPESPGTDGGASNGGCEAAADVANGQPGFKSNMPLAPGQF

Serine/threonine-protein kinase 17A (Homo sapiens), sequence (Q9UEE5 whole entry): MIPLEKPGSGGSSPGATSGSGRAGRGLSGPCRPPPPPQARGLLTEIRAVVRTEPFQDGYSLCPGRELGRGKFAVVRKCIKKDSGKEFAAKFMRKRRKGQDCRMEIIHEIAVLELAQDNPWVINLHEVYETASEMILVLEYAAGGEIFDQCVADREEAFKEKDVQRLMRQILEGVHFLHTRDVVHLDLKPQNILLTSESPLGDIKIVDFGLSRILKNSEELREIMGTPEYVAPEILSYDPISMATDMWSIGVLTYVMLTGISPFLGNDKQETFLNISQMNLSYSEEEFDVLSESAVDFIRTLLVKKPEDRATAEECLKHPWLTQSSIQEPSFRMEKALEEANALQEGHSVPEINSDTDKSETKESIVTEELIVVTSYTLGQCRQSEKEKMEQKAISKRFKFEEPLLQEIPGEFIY
Calcium/calmodulin-dependent protein kinase type 1G (Homo sapiens), sequence (Q96NX5 whole entry): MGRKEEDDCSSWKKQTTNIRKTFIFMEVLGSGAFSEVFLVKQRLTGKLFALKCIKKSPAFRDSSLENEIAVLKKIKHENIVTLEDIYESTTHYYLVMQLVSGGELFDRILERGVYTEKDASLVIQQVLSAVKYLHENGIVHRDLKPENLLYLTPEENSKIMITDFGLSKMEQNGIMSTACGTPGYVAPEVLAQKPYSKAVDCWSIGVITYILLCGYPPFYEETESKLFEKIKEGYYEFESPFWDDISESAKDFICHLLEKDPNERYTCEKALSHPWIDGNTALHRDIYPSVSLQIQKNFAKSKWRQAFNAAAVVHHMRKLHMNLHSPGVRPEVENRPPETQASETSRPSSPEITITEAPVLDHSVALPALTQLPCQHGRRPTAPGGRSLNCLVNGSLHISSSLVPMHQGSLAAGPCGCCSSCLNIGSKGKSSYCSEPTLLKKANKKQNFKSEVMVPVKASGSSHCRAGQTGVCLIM
Glycogen synthase kinase-3 beta (Homo sapiens), sequence (P49841 whole entry, looked up): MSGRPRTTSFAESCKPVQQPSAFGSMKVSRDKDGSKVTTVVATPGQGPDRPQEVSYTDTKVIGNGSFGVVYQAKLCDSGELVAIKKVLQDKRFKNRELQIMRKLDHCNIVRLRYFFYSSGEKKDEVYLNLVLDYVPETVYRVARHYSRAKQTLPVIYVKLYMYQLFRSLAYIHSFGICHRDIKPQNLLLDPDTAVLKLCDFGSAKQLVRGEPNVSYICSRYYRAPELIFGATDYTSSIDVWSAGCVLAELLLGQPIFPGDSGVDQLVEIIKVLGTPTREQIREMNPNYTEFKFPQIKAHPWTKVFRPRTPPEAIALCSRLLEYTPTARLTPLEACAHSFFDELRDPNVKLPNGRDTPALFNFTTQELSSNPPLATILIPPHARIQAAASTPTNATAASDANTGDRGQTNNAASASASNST
Mast/stem cell growth factor receptor Kit (Homo sapiens), P10721 [A829P], sequence (P10721 whole entry A829P): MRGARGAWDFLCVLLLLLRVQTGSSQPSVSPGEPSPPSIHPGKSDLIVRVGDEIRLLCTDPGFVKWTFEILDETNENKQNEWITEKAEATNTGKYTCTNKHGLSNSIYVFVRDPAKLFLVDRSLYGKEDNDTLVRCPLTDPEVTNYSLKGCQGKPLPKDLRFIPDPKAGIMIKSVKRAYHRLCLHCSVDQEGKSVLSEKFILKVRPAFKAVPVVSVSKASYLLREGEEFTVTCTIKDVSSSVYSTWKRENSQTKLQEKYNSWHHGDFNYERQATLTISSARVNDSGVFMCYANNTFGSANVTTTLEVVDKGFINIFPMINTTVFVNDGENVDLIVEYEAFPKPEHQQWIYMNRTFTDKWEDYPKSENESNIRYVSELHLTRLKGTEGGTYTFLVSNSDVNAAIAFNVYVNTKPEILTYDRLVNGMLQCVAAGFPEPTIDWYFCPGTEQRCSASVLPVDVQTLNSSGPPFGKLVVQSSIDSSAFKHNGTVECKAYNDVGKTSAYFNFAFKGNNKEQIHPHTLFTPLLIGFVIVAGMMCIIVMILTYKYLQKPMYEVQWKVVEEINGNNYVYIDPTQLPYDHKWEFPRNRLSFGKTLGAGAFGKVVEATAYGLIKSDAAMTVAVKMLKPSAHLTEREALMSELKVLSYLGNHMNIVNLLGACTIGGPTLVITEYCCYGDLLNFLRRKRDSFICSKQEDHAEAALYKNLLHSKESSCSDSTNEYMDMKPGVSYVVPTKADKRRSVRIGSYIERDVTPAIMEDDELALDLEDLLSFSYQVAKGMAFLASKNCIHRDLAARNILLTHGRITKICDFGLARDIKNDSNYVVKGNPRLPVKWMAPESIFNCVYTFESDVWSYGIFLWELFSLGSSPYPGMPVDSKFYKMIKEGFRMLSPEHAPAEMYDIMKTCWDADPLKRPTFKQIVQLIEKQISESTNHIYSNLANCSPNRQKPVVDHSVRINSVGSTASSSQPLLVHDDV
D(1B) dopamine receptor (Homo sapiens), sequence (P21918 whole entry): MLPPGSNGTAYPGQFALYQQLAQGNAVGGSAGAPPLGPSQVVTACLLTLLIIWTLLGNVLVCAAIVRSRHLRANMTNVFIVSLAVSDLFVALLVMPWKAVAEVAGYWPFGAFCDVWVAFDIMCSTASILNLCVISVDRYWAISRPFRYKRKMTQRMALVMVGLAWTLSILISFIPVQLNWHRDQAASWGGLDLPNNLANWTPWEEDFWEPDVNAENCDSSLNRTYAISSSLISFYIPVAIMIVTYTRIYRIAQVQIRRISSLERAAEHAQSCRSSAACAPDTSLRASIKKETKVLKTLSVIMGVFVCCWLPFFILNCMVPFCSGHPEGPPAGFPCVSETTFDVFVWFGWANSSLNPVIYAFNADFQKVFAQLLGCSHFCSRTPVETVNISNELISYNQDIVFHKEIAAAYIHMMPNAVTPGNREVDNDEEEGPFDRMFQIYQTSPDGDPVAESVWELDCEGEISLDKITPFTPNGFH
Cyclin-dependent kinase 4 (Homo sapiens), sequence (P11802 whole entry): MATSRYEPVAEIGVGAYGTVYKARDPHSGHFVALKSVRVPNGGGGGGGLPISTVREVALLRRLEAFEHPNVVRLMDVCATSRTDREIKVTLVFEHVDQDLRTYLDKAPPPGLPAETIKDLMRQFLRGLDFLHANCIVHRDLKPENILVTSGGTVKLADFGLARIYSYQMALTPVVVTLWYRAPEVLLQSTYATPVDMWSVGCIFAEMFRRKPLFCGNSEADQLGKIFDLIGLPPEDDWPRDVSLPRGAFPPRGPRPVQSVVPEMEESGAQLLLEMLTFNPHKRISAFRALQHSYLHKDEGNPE
Protein kinase C iota type (Homo sapiens), sequence (P41743 whole entry): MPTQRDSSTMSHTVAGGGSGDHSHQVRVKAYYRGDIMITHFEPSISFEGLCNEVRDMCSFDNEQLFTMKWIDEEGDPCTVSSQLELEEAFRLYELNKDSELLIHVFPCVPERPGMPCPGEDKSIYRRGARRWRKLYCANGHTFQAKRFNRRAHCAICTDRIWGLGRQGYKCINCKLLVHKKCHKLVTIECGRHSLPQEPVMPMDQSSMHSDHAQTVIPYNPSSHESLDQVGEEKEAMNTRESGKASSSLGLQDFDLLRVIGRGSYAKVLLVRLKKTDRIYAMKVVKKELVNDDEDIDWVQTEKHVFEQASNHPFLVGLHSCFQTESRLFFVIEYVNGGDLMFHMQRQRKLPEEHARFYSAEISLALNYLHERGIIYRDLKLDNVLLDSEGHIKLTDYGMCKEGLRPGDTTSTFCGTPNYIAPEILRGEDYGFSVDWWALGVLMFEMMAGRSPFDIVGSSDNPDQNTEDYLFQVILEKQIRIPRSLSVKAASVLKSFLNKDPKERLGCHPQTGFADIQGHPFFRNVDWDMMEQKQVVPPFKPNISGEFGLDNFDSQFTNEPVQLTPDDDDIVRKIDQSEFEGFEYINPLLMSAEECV
Tyrosine-protein kinase Fes/Fps (Homo sapiens), sequence (P07332 whole entry): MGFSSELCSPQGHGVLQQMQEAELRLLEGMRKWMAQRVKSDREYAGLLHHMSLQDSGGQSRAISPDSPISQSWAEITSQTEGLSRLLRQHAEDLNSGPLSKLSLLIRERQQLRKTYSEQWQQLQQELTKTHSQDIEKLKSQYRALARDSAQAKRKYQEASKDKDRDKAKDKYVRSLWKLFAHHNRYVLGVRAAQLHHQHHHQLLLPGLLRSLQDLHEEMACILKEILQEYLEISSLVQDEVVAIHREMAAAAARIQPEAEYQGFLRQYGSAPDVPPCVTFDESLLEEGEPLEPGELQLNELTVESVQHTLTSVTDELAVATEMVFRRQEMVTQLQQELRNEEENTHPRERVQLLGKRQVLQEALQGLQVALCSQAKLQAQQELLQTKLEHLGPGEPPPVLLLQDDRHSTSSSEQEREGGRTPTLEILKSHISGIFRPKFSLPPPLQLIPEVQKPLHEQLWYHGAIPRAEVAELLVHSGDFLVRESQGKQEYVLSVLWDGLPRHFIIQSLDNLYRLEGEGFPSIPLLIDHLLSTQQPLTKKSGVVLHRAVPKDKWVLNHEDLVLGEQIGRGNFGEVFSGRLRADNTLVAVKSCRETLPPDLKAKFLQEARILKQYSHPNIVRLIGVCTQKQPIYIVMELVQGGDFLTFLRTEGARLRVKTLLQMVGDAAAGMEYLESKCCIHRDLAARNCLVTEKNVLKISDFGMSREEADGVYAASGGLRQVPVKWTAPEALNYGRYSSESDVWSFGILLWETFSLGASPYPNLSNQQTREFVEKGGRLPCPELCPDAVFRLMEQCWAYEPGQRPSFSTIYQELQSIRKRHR
Serine/threonine-protein kinase 24 (Homo sapiens), sequence (Q9Y6E0 whole entry, looked up): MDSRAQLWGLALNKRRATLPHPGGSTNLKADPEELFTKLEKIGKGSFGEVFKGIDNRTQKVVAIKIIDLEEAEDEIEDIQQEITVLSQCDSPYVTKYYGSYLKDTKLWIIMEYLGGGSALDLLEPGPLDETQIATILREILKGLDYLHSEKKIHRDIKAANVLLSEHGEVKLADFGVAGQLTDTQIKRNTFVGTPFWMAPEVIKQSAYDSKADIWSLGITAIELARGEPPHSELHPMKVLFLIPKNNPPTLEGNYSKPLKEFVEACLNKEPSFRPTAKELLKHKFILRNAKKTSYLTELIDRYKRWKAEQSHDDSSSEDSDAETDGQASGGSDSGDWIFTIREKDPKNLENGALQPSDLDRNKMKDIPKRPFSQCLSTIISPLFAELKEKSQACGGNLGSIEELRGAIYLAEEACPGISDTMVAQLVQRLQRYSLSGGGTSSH

Structure (SMILES): COc1ccc2c(c1)O[C@@H](c1ccc(OC)c(OC)c1)C[C@H]2NC(=O)C1(c2ccc3c(c2)OC(F)(F)O3)CC1 [A-1596586]
- inhibition [1]: 17.6%
- residual activity [2]: 75%
- residual activity [3]: 93%
- residual activity [4]: 85%
- residual activity [5]: 100%
- residual activity [6]: 100%
- residual activity [7]: 75%
- residual activity [8]: 96%
- residual activity [9]: 84%
- residual activity [10]: 80%
- residual activity [11]: 100%
- residual activity [12]: 93%
- residual activity [13]: 91%
- residual activity [14]: 81%
- residual activity [15]: 84%
- residual activity [16]: 92%
- residual activity [17]: 99%
- inhibition [18]: 20.7%
- residual activity [19]: 92%
- % Inhibition of Control Values (Mean n=2) [20]: -7.9%
- residual activity [21]: 91%
- residual activity [22]: 75%
- residual activity [23]: 92%
- residual activity [24]: 77%
- residual activity [25]: 98%
- Ki [26]: 1190 nM
- residual activity [27]: 93%
- % Inhibition of Control Specific Binding (Mean n=2) [28]: 4.8%

Structure (SMILES): COc1ccc2c(c1)O[C@H](c1ccc(OC)c(OC)c1)C[C@@H]2NC(=O)C1(c2ccc3c(c2)OC(F)(F)O3)CC1 [A-1596584]
- inhibition [1]: 14.9%
- residual activity [2]: 100%
- residual activity [3]: 95%
- residual activity [4]: 100%
- residual activity [5]: 100%
- residual activity [6]: 100%
- residual activity [7]: 69%
- residual activity [8]: 92%
- residual activity [9]: 100%
- residual activity [10]: 93%
- residual activity [11]: 100%
- residual activity [12]: 97%
- residual activity [13]: 96%
- residual activity [14]: 100%
- residual activity [15]: 98%
- residual activity [16]: 89%
- residual activity [17]: 100%
- inhibition [18]: 20%
- residual activity [19]: 100%
- % Inhibition of Control Values (Mean n=2) [20]: -6.7%
- residual activity [21]: 100%
- residual activity [22]: 84%
- residual activity [23]: 100%
- residual activity [24]: 100%
- residual activity [25]: 100%
- Ki [26]: 584 nM
- residual activity [27]: 100%
- % Inhibition of Control Specific Binding (Mean n=2) [28]: 17.4%
